The values that follow are results of earlier work, collected in US11046657B2, “Pyrimidinone derivatives and uses thereof to neutralize the biological activity of chemokines” (Centre National de la Recherche Scientifique (CNRS), priority 2016, dated 2021).

Holding throughout (conditions): cited from earlier work
One series has as its system CXCR4.
For series [1], the system named is human peripheral blood CD4+ lymphocytes.
The next series addresses CXCL12 to CXCR7 (Homo sapiens, UniProt P48061).

Structures are written as SMILES.

Chain of CXCL12 to CXCR7 (P48061 22-89 limits assumed): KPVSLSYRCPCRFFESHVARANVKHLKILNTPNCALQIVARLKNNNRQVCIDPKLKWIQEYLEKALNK

Consider `COc1cc(/C=C/C(=O)c2ccc(Cl)cc2)ccc1O` [Chalcone-4, (E)-1-(4-Chlorophenyl)-3-(4-hydroxy-3-methoxyphenyl)prop-2-en-1-one, reference compound], for which the “CXCR4 internalization in response to CXCL12” value with CXCR4 is “prevents CXCR4 internalization”. Besides, in series [1], the “Chemotaxis of human peripheral blood CD4+ lymphocytes” value is given as “blocks chemotaxis”. In addition, the “Binding of CXCL12 to CXCR7” value at CXCL12 to CXCR7 is “inhibits”.
